Experimental data as given in patent publication EP0705816B1, “BENZENE DERIVATIVE USEFUL FOR ISCHEMIC DISEASES” (Chugai Seiyaku Kabushiki Kaisha, priority 1993, dated 1995).
Like-named read-outs stand apart in the source and are kept apart here.

Tests used:
[1] = tested on: ventricular myocytes; assay: Inhibitory action on calcium overload in vitro, Method A: veratrine-treated myocytes; type: cell-based, male Sprague-Dawley rat; parameters: key: ++: The cells survived almost completely at 10^-7 M.; The cells died almost completely at 10 M^-8 M; conditions: compound 30 minutes, then 100 µg/ml of veratrine; shape of cells observed five minutes later
Procedure: (§1) Incubated ventricular myocytes were prepared from the heart of male Sprague-Dawley rat weighing 300 to 500 g, using an enzyme-perfusion method. […]

[2] = tested on: rabbit LDL; assay: Inhibitory action on lipid peroxidation in vitro, Method A: oxidation of LDL by soybean lipoxygenase, fluorescence of the LDL fraction; type: biochemical; conditions: fluorescence intensity of LDL fraction, SLO 40 µg/ml, 37°C, 24 hours
Procedure: A test compound was added to rabbit LDL prepared according to the method of Havel, et al. (Havel RJ et al., J. Clin. Invest., 34, 1345 (1955)), and then a soybean lipoxygenase type-IS (SLO) was added to a final concentration of 40 µg/ml. Oxydation of LDL was carried out by incubating at 37°C in a CO2 incubator for 24 hours. The oxidized LDL solution was analyzed by gel-permeation chromatography, and the fluorescence intensity of the LDL fraction was measured at an excitation wavelength of 360 nm and an emission wavelength of 430 nm.

[3] = tested on: ventricular myocytes; assay: Inhibitory action on calcium overload in vitro, Method B: veratridine-treated myocytes; type: cell-based, male Sprague-Dawley rat; conditions: 50 µg/ml of veratridine, read-out: Concentration at Which Cells Survived Almost Completely
Procedure: as §1
The efficacy was evaluated in the same manner as in Method A, except for using 50 µg/ml of veratridine in place of veratrine (100 µg/ml).

[4] = tested on: rabbit LDL; assay: Inhibitory action on lipid peroxidation in vitro, Method B: CuSO4 oxidation of LDL, TBARS by fluorometry; type: biochemical; conditions: 1 x 10^-5 M, CuSO4 1 µM, 37°C, 24 hours, 10 µM
Procedure: A test compound was added to rabbit LDL prepared according to the method of Havel, et al. (Havel RJ, et al., J. Clin. Invest., 34, 1345 (1955)), and then CuSO4 was added to a final concentration of 1 µM. Oxidation of LDL was performed by shaking at 37°C for 24 hours. The generated TBARS was measured by the method of Yagi utilizing fluorometry (Yagi, K., Biochem. Med., 15, 212 (1976)).

[5] = Rattus norvegicus, Ventricular myocyte

Structure (SMILES) | Survival Rate of Cells [1] | Percent (%) of Control ([2]; 5 x 10^-6 M) | Percent (%) of Control ([2]; 5 x 10^-7 M, 0.5 µM) | % of Control [4] | further results
COc1ccc([C@@H]2Sc3ccccc3N(CCN(C)C)C(=O)[C@@H]2OC(C)=O)cc1 [Diltiazem, reference compound] | - | 110.7% | 109.1% | 96.9% | minimal effective concentration ([3]; Rattus norvegicus, Ventricular myocyte, symbol defined by footnote): > 1 µM
CN(CCCN1C(=O)CSC1c1cc(C(C)(C)C)c(O)c(C(C)(C)C)c1)CCOc1ccc2c(c1)OCO2 (single isomer, unassigned; (-)) [Compound (71), (-)-2-(3,5-Di-tert-butyl-4-hydroxyphenyl)-3-[3-[N-methyl-N-[2-(3,4-methylenedioxyphenoxy)ethyl]amino]propyl]-1,3-thiazolidin-4-one] |  |  | 12.7% | 23.8% | Percent (%) of Control ([2]; 5 x 10^-6 M, 5 µM): 2.8%
CN(CCCN1C(=O)C(OCCO)SC1c1cc(C(C)(C)C)c(O)c(C(C)(C)C)c1)CCOc1ccc2c(c1)OCO2 (centres unmarked) [Compound (55)] |  |  |  | 20.0% | 
COc1ccc(CCN(C)CCCN2C(=O)CSC2c2cc(C(C)(C)C)c(O)c(C(C)(C)C)c2)cc1OC (centres unmarked) [Compound (20)] | + | 0.6% | 8.7% | 21.3% | 
CN(CCCN1C(=O)C(CCO)SC1c1cc(C(C)(C)C)c(O)c(C(C)(C)C)c1)CCOc1ccc2c(c1)OCO2 (centres unmarked) [Compound (49), 2-(3,5-Di-tert-butyl-4-hydroxyphenyl)-3-[3-[N-methyl-N-[2-(3,4-methylenedioxyphenoxy)ethyl]amino]propyl]-5-(2-hydroxyethyl)-1,3-thiazolidin-4-one] |  |  |  | 15.7% | 
CN(CCCN1C(=O)CSC1c1cc(C(C)(C)C)c(O)c(C(C)(C)C)c1)CCOc1ccc2c(c1)OCO2 (centres unmarked) [Compound (26), 2-(3,5-Di-tert-butyl-4-hydroxyphenyl)-3-[3-[N-methyl-N-[2-(3,4-methylenedioxyphenoxy)ethyl]amino]propyl]-1,3-thiazolidin-4-one] | ++ |  |  |  | 
CN(CCCN1C(=S)CSC1c1cc(C(C)(C)C)c(O)c(C(C)(C)C)c1)CCOc1ccc2c(c1)OCO2 (centres unmarked) [Compound (57), 2-(3,5-Di-tert-butyl-4-hydroxyphenyl)-3-[3-[N-methyl-N-[2-(3,4-methylenedioxyphenoxy)ethyl]amino]propyl]-1,3-thiazolidin-4-thione] |  | 11.3% | 22.8% | 23.0% | 
CC1SC(c2cc(C(C)(C)C)c(O)c(C(C)(C)C)c2)N(CCCN(C)CCOc2ccc3c(c2)OCO3)C1=O (centres unmarked) [Compound (41), 2-(3,5-Di-tert-butyl-4-hydroxyphenyl)-3-[3-[N-methyl-N-[2-(3,4-methylenedioxyphenoxy)ethyl]amino]propyl]-5-methyl-1,3-thiazolidin-4-one] |  | 6.2% | 18.3% | 26.3% | 
CC(C)(C)c1cc(C2SCC(=O)N2CCCN2CCC(Oc3ccc4c(c3)OCO4)CC2)cc(C(C)(C)C)c1O (centres unmarked) [Compound (34)] |  |  |  | 20.5% | minimal effective concentration [3, 5]: 0.32 µM
CN(CCCOc1ccc2c(c1)OCO2)CCCN1C(=O)CSC1c1cc(C(C)(C)C)c(O)c(C(C)(C)C)c1 (centres unmarked) [Compound (17)] |  | 3.9% | 16.4% | 21.0% | minimal effective concentration [3, 5]: 0.32 µM
CCOC(=O)CC1SC(c2cc(C(C)(C)C)c(O)c(C(C)(C)C)c2)N(CCCN(C)CCOc2ccc3c(c2)OCO3)C1=O (centres unmarked) [Compound (46), 2-(3,5-Di-tert-butyl-4-hydroxyphenyl)-3-[3-[N-methyl-N-[2-(3,4-methylenedioxyphenoxy)ethyl]amino]propyl]-5-ethoxycarbonylmethyl-1,3-thiazolidin-4-one] |  |  |  | 20.4% | 
CC1SC(c2cc(C(C)(C)C)c(O)c(C(C)(C)C)c2)N(CCCN(C)CCOc2ccc3c(c2)OCO3)C1=O (single isomer, unassigned; (+)) [Compound (74), (+)-2,5-Cis-2-(3,5-di-tert-butyl-4-hydroxyphenyl)-3-[3-[N-methyl-N-[2-(3,4-methylenedioxyphenoxy)ethyl]amino]propyl]-5-methyl-1,3-thiazolidin-4-one] |  |  |  |  | minimal effective concentration [3, 5]: 0.32 µM
CC1SC(c2cc(C(C)(C)C)c(O)c(C(C)(C)C)c2)N(CCCN(C)CCOc2ccc3c(c2)OCO3)C1=O (single isomer, unassigned; (-)) [Compound (75), (-)-2,5-Cis-2-(3,5-di-tert-butyl-4-hydroxyphenyl)-3-[3-[N-methyl-N-[2-(3,4-methylenedioxyphenoxy)ethyl]amino]propyl]-5-methyl-1,3-thiazolidin-4-one] |  |  |  |  | minimal effective concentration [3]: 0.32 µM
C[C@H]1S[C@H](c2cc(C(C)(C)C)c(O)c(C(C)(C)C)c2)N(CCCN(C)CCOc2ccc3c(c2)OCO3)C1=O (relative stereo) [Compound (72), 2,5-Trans-2-(3,5-di-tert-butyl-4-hydroxyphenyl)-3-[3-[N-methyl-[2-(3,4-methylenedioxyphenoxy)ethyl]amino]propyl]-5-methyl-1,3-thiazolidin-4-one] |  |  |  |  | minimal effective concentration [3, 5]: 0.32 µM
CN(CCCCN1C(=O)CSC1c1cc(C(C)(C)C)c(O)c(C(C)(C)C)c1)CCOc1ccc2c(c1)OCO2 (centres unmarked) [Compound (8)] | ++ |  |  |  | 
CCN(CCCN1C(=O)CSC1c1cc(C(C)(C)C)c(O)c(C(C)(C)C)c1)CCOc1ccc2c(c1)OCO2 (centres unmarked) [Compound (12)] | ++ | 6.4% | 16.8% | 25.9% | 
CN(CCCCCN1C(=O)CSC1c1cc(C(C)(C)C)c(O)c(C(C)(C)C)c1)CCOc1ccc2c(c1)OCO2 (centres unmarked) [Compound (9)] | ++ | 5.9% | 13.5% | 26.4% | 
CN(CCCN1C(=O)CSC1c1cc(C(C)(C)C)c(O)c(C(C)(C)C)c1)CCOc1ccc2c(c1)OCO2 (single isomer, unassigned; (+)) [Compound (70), (+)-2-(3,5-Di-tert-butyl-4-hydroxyphenyl)-3-[3-[N-methyl-N-[2-(3,4-methylenedioxyphenoxy)ethyl]amino]propyl]-1,3-thiazolidin-4-one] |  |  | 15.2% | 21.1% | Percent (%) of Control ([2]; 5 x 10^-6 M, 5 µM): 5.1%
CN(CCCN1C(=O)C(CC(=O)N(C)C)SC1c1cc(C(C)(C)C)c(O)c(C(C)(C)C)c1)CCOc1ccc2c(c1)OCO2 (centres unmarked) [Compound (51)] |  |  |  | 16.6% | 
